From US8143237B2, “Anti-cancer drugs, and uses relating for malignant melanoma and other cancers” (Kasina Laila Innova Pharmaceuticals Private Limited, priority 2009, dated 2012)
≈ marks a conversion by molar mass, not a printed value.

What was measured:
[1] = test system: mouse malignant melanoma B16 F0 cells; test: MTT based cell proliferation assay, B16 F0 cells; conditions: Mus musculus, B16F0, 72 h, MTT; for inhibition at 100 µg/mL: at 100 μg/ml; for inhibition at 100 µg/mL / inhibition at 60 µg/mL: three days; for inhibition at 60 µg/mL: at 60 μg/ml
Description: (§1) The cytotoxic efficacies of the various selenopheno triazene compounds (compounds 1 to 16) was evaluated in both human malignant melanoma A375 cells and mouse malignant melanoma B16 F0 cells by MTT cell proliferation assay kit (Roche Applied Sciences, Germany). The assay was carried out according to the instruction provided by the vendor. Briefly, equal numbers of cells was plated in 96-well flat-bottomed plates and were incubated with both DTIC and the test compounds (compounds 1 to 16) at various concentrations for a period of three days. […] Finally, the cells were solubilized by adding solubilizing solution and allowed to incubate at 37° C. overnight. After complete solubilization of the formazan crystals, the absorbance was read at 540 nm in a microplate reader (BioRad, USA).

[2] = test system: human malignant melanoma A375 cells; test: MTT based cell proliferation assay, A375 cells; conditions: A-375, 72 h, at 10 μg/ml, three days
Description: as §1

Compound | melting point | inhibition at 100 µg/mL [1] | inhibition at 60 µg/mL [1] | inhibition at 10 µg/mL [2] | IC50 ([1]; three days incubation, read-out: Cell proliferation inhibition in B16F0 cells, IC50)
CN(C)/N=N/c1cc(-c2ccccc2)[se]c1C(=O)O [Compound 7, 3-[(dimethylamino)diazenyl]-5-phenylselenophene-2-carboxylic acid] | 212 to 214 °C | 5% |  |  | 
Cn1nnc2c([se]c3ccccc32)c1=O [Compound 16, 3-methylbenzo[b]1,2,3-triazino[4,5-d]selenophen-4-one] | 190 to 192 °C |  | 31% |  | 
CN(C)/N=N/c1c(C(N)=O)[se]c2c1CCCC2 [Compound 5, 3-[(dimethylamino)diazenyl]-4,5,6,7-tetrahydrobenzo[1,2-b]selenophene-2-carboxamide] | 198 to 202 °C |  | 0.41% |  | 
CN(C)/N=N/c1c(C(=O)O)[se]c2ncccc12 [Compound 10, 3-[(dimethylamino)diazenyl]selenopheno[2,3-b]pyridine-2-carboxylic acid] | 172 to 174 °C |  | 12% |  | 
CN(C)/N=N/c1cc(-c2ccccc2)[se]c1C(N)=O [Compound 3, 3-[(dimethylamino)diazenyl]-5-phenylselenophene-2-carboxamide] | 222 to 224 °C | 30% |  | 14% | 
Cn1nnc2cc(-c3ccccc3)[se]c2c1=O [Compound 12, 3-methyl-6-phenylselenopheno[3,2-d]1,2,3-triazin-4-one] | 232 to 234 °C | 27% |  |  | 
CN(C)/N=N/c1cc(C(N)=O)[se]c1C(N)=O [Compound 2, 3-[(dimethylamino)diazenyl]selenophene-2,5-dicarboxamide] | 266 to 268 °C |  |  |  | 
CN(C)/N=N/c1cc(C(C)(C)C)[se]c1C#N [Compound 11, 3-[(dimethylamino)diazenyl]-5-(tert-butyl)selenophene-2-carbonitrile] | 58 to 60 °C |  | 48% |  | 
Cn1nnc2cc(C(C)(C)C)[se]c2c1=O [Compound 13, 6-(tert-butyl)-3-methylselenopheno[3,2-d]1,2,3-triazin-4-one] | 98 to 100 °C |  | 33% |  | 
Cn1nnc2c([se]c3ncccc32)c1=O [Compound 15, 3-methyl-1,2,3-triazino[4′,5′-5,4]selenopheno[2,3-b]pyridine-4-one] | 202 to 204 °C |  |  |  | 
CN(C)/N=N/c1cc(C(C)(C)C)[se]c1C(N)=O [Compound 4, 3-[(dimethylamino)diazenyl]-5-(tert-butyl)selenophene-2-carboxamide] | 218 to 220 °C |  | 34% | 0.5% | 
Cn1nnc2c3c([se]c2c1=O)CCCC3 [Compound 14, 3-methyl-6,7,8,9-tetrahydrobenzo[1,2-b]1,2,3-triazino[4,5-d]selenophen-4-one] |  |  | 17% |  | 
CN(C)/N=N/c1c(C(N)=O)[se]c2ncccc12 [Compound 6, 3-[(dimethylamino)diazenyl]selenopheno[2,3-b]pyridine-2-carboxamide] | 230 to 232 °C |  | 4% |  | 
CN(C)/N=N/c1c(C(=O)O)[se]c2c1CCCC2 [Compound 9, 3-[(dimethylamino)diazenyl]-4,5,6,7-tetrahydrobenzo[1,2-b]selenophene-2-carboxylic acid] | 100 to 102 °C |  | 32% |  | 
CN(C)/N=N/c1cc(C(C)(C)C)[se]c1C(=O)O [Compound 8, 3-[(dimethylamino)diazenyl]-5-(tert-butyl)selenophene-2-carboxylic acid] | 120 to 122 °C |  |  | 24% | 43.6 µg/mL (≈ 144 µM)
